The values that follow come from PubChem BioAssay AID449725 (University of Pittsburgh Molecular Library Screening Center, 2010).

Calls of active or inactive are those of the source. How the calls were made is not given here.

In this experiment the test system is IMR-90 human lung fibroblast viability counter screen. As to the kind of experiment: IMR-90 fibroblast viability reduction, dose response, cytotoxicity control, cell-based, IC50 (AID 449725).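 Further: 48 hour compound exposure before the viability read.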
The term IC50 denotes the midpoint of a concentration-inhibition curve. For the compound `COc1ccc(C(=O)Nc2cc(Cl)ccc2-c2noc(=O)[nH]2)cc1`, the IC50 was > 25 µM (inactive).
The result for `COc1ccc(C(=O)Nc2cc(Cl)ccc2C(=O)O)cn1` reads > 25 µM (inactive); that for `CC(C)(C)c1ccc(C(=O)Nc2cc(Br)ccc2C(=O)O)cc1`, > 25 µM (inactive); that for `CC(C)c1cccc(C(=O)Nc2cc(Cl)ccc2C(=O)O)c1`, > 25 µM (inactive).
`O=C(Cn1sc2cc(F)ccc2c1=O)Nc1ccccc1`: the IC50 was 14.8 µM.
The result for `O=C1c2ccccc2S(=O)N1c1cccc(F)c1` (configuration not stated) reads > 25 µM (inactive).
Turning to `O=C(Nc1cc(Cl)ccc1C(=O)O)c1ccc2ccccc2c1`, the IC50 was > 25 µM (inactive).
As for `O=C(Nc1cc(Cl)ccc1C(=O)O)c1ccoc1`, the IC50 is > 25 µM (inactive).
Consider `O=C(Nc1cc(Cl)ccc1C(=O)O)c1ccccc1`, for which the IC50 is > 25 µM (inactive).
Consider `O=C(Cn1sc2ccccc2c1=O)NCc1ccccc1`, for which the 50% inhibitory concentration (IC50) was 6.37 µM.
Under `O=C(c1ccccc1)n1sc2ccccc2c1=O` stands 17 µM.
Under `O=C(Cn1sc2ccccc2c1=O)Nc1ccccc1C(F)(F)F` stands > 25 µM (inactive); under `O=c1c2ccc(F)cc2sn1-c1ccccc1`, 7.17 µM.
Under `O=c1c2cc([N+](=O)[O-])ccc2sn1-c1ccccc1` stands 10.2 µM; under `N#Cc1ccccc1NC(=O)Cn1sc2ccccc2c1=O`, > 25 µM (inactive).
`O=C(Cn1sc2ccccc2c1=O)N1CCCCC1`: the IC50 is 16.5 µM.
On to `CN(C)c1ccc(NC(=O)Cn2sc3ccccc3c2=O)cc1`, for which the 50% inhibitory concentration (IC50) was 18.4 µM.
Consider `Cc1ccc(C(=O)Nc2cc(Cl)ccc2C(=O)O)cc1`, for which the IC50 is > 25 µM (inactive).
Turning to `O=C(O)c1ccc(Cl)cc1NC(=O)c1coc2ccccc12`, the IC50 is > 25 µM (inactive).
Consider `COc1ccc(NC(=O)Cn2sc3ccccc3c2=O)cc1`, for which the concentration for half-maximal inhibition (IC50) is 6.49 µM.
Under `O=c1c2cc(F)ccc2sn1-c1ccccc1Cl` stands 6.16 µM.
As for `O=C(Nc1cc(Cl)ccc1C(=O)O)c1ccc2c(c1)CCCC2`, the IC50 is > 25 µM (inactive).
For `CCOC(=O)c1ccncc1NC(=O)c1ccc(OC)cc1`, the IC50 is > 25 µM (inactive).
Turning to `COc1ccc(S(=O)(=O)Nc2cc(Cl)ccc2C(=O)O)cc1`, the IC50 was > 25 µM (inactive).
With `COc1ccc(C(=O)Nc2cc(F)cc(F)c2O)cc1`, the IC50 is > 25 µM (inactive).
Take `O=C1c2cccc(Br)c2SCN1c1ccccc1`: the IC50 was > 25 µM (inactive).
In the case of `CCOC(=O)Cn1sc2ccccc2c1=O`, the IC50 is 6.35 µM.
Take `O=C(Nc1cc(Cl)ccc1C(=O)O)c1ccc(OC(F)(F)F)cc1`: the IC50 was > 25 µM (inactive).
Consider `O=c1c2ccccc2sn1-c1cccc(F)c1`, for which the half-maximal inhibitory concentration (IC50) was 7.9 µM.
Consider `CCC(C)(C)c1ccc(C(=O)Nc2cc(Cl)ccc2C(=O)O)cc1`, for which the IC50 is > 25 µM (inactive).
For `CCOc1ccc(C(=O)Nc2cc(Cl)ccc2C(=O)O)cc1`, the IC50 is > 25 µM (inactive).
As for `O=c1c2ccccc2sn1-c1ccc(Cl)cc1Cl`, the IC50 was > 25 µM (inactive).
As for `CC(C)c1ccc(C(=O)Nc2cc(Cl)ccc2C(=O)O)cc1`, the IC50 was > 25 µM (inactive).
In the case of `COc1cccc(C(=O)Nc2cc(Cl)ccc2C(=O)O)c1`, the IC50 is > 25 µM (inactive).
Regarding `O=C(Cn1sc2ccccc2c1=O)NC1CCCCC1`, the IC50 is 12.8 µM.
For the compound `O=c1c2cc(F)ccc2sn1-c1ccccc1`, the IC50 is > 25 µM (inactive).
The result for `O=c1c2ccccc2sn1-c1ccccc1F` reads 5.4 µM; that for `O=C(Cn1sc2ccccc2c1=O)Nc1ccc(Br)cc1`, > 25 µM (inactive); that for `COC(=O)c1ccc(Cl)cc1NC(=O)c1ccccc1OC`, > 25 µM (inactive).
Consider `COc1ccc(C(=O)Nc2ccccc2C(=O)O)cc1Cl`, for which the IC50 was > 25 µM (inactive).
For the compound `O=C(Nc1cc(Cl)ccc1C(=O)O)c1ccc(Cc2ccccc2)cc1`, the IC50 was > 25 µM (inactive).
`O=C(Nc1cc(Cl)ccc1C(=O)O)c1ccc(C2CCC2)cc1`: the IC50 is > 25 µM (inactive).
Consider `O=C1c2ccccc2S(=O)N1c1ccc(Cl)cc1` (configuration not stated), for which the IC50 is > 25 µM (inactive).
For `COc1cccc(NC(=O)Cn2sc3ccccc3c2=O)c1`, the IC50 was 8.77 µM.
For the compound `Cc1ccc(C(=O)Nc2cc(Cl)ccc2C(=O)O)c(C)c1`, the IC50 was > 25 µM (inactive).
Take `CC(C)(C)c1ccc(C(=O)Nc2cc(Cl)c(Cl)cc2C(=O)O)cc1`: the IC50 is > 25 µM (inactive).
`COc1ccc(C(=O)Nc2cc(Cl)c(C)cc2C(=O)O)cc1`: the IC50 is > 25 µM (inactive).
Under `O=c1c2cc(C(F)(F)F)ccc2sn1-c1ccccc1` stands 12 µM; under `O=C(Cn1sc2ccccc2c1=O)N1CCOCC1`, > 25 µM (inactive).
The result for `CC(=O)Nc1ccc2sn(-c3ccccc3)c(=O)c2c1` reads 24.5 µM; that for `O=C(Cn1sc2ccccc2c1=O)Nc1ccccc1`, 6.93 µM; that for `O=c1c2ccccc2sn1-c1ccc(Cl)cc1`, > 25 µM (inactive).
Under `O=C1c2cc(Br)ccc2S(=O)N1c1ccccc1` (configuration not stated) stands > 25 µM (inactive); under `O=C(Nc1cc(Cl)ccc1C(=O)O)c1ccc(-c2ccccc2)cc1`, > 25 µM (inactive).
In the case of `O=C(Nc1cc(Cl)ccc1C(=O)O)c1ccc(I)cc1`, the IC50 is > 25 µM (inactive).
Take `CC(=O)Nc1ccc2c(=O)n(-c3ccccc3)sc2c1`: the IC50 is > 25 µM (inactive).
`O=C(Cn1sc2ccccc2c1=O)Nc1ccc(Cl)cc1`: the IC50 is > 25 µM (inactive).
With `COc1ccc(C(=O)NC(CC(=O)O)c2ccc(Cl)cc2)cc1` (configuration not stated), the IC50 was > 25 µM (inactive).
`COC(=O)c1ccc(Cl)cc1NC(=O)c1ccc(Cl)cc1`: the IC50 is > 25 µM (inactive).
`COc1cc(C(=O)Nc2cc(Cl)ccc2C(=O)O)cc(OC)c1OC`: the IC50 is > 25 µM (inactive).
`O=c1c2ccccc2on1-c1ccccc1`: the IC50 was > 25 µM (inactive).
For `COc1cccc(-n2sc3ccccc3c2=O)c1`, the IC50 is 6.34 µM.
Regarding `COc1ccc(C(=O)Nc2cc(Cl)ccc2C(=O)O)cc1OC`, the IC50 was > 25 µM (inactive).
The result for `COC(=O)c1ccc(Cl)cc1NS(=O)(=O)c1ccc(OC)cc1` reads 13.8 µM.
With `O=C1CCN(C(=O)Nc2cc(Cl)ccc2C(=O)O)CC1`, the IC50 is > 25 µM (inactive).
The result for `O=C(O)c1ccc(Cl)cc1NC(=O)C1CCOCC1` reads > 25 µM (inactive); that for `COc1ccc(C(=O)Nc2cc(C(=O)O)ccc2Cl)cc1`, > 25 µM (inactive).
On to `O=C(Nc1cc(Cl)ccc1C(=O)O)c1ccc(C2CCCC2)cc1`, for which the IC50 was > 25 µM (inactive).
As for `COC(=O)c1ccc(Cl)cc1NC(=O)c1ccc(OC)cc1`, the IC50 was > 25 µM (inactive).
With `CC(C)(C)c1ccc(C(=O)Nc2cc(Cl)ccc2-c2nn[nH]n2)cc1`, the IC50 is > 25 µM (inactive).
In the case of `COc1ccc(Nc2cc(Cl)ccc2C(=O)O)cc1`, the IC50 was > 25 µM (inactive).
On to `CC(C)(C)c1ccc(C(=O)Nc2cc(Cl)c(Br)cc2C(=O)O)cc1`, for which the IC50 is > 25 µM (inactive).
In the case of `COc1ccc(C(=O)Nc2cc(Cl)ccc2-c2nn[nH]n2)cc1`, the IC50 was > 25 µM (inactive).
In the case of `COc1ccc(C(=O)Nc2cc(Cl)ccc2O)cc1`, the IC50 was > 25 µM (inactive).
Turning to `CC(C)(C)c1ccc(C(=O)Nc2cc(Cl)ccc2O)cc1`, the IC50 is > 25 µM (inactive).
The result for `O=C(Cn1sc2ccccc2c1=O)Nc1cccc(C(F)(F)F)c1` reads > 25 µM (inactive).
`COc1ccc(C(=O)NC(C(=O)O)c2ccccc2)cc1` (configuration not stated): the IC50 was > 25 µM (inactive).
For `COc1ccc(C(=O)N2CCC(=O)c3ccc(Cl)cc32)cc1`, the IC50 is > 25 µM (inactive).
With `Cn1sc2ccccc2c1=O`, the concentration for half-maximal inhibition (IC50) was 2.32 µM.
Regarding `COc1ccc(C(=O)Nc2cc(F)ccc2C(=O)O)cc1`, the IC50 was > 25 µM (inactive).
Take `O=C(Cn1sc2ccccc2c1=O)Nc1ccccc1Br`: the IC50 was > 25 µM (inactive).
For the compound `O=c1c2ccc(F)cc2sn1Cc1ccccc1`, the IC50 is > 25 µM (inactive).
The result for `COc1ccc(C(=O)Nc2cc(Cl)c(Br)cc2C(=O)O)cc1` reads > 25 µM (inactive).
As for `COc1ccc(C(=O)Nc2ccccc2C(=O)O)cc1`, the IC50 is > 25 µM (inactive).
Take `COc1ccc(NC(=O)c2ccc(Cl)cc2C(=O)O)cc1`: the IC50 was > 25 µM (inactive).
On to `O=C(Cn1sc2ccccc2c1=O)Nc1ccccc1Cl`, for which the IC50 was > 25 µM (inactive).
Under `Cc1cc(=O)n(-c2ccccc2)s1` stands 9.14 µM.
On to `COc1ccc2sn(-c3ccccc3)c(=O)c2c1`, for which the IC50 was > 25 µM (inactive).
The result for `O=C(Cn1sc2ccccc2c1=O)Nc1ccccc1F` reads > 25 µM (inactive); that for `O=c1c(O)c(-c2ccc(O)c(O)c2)oc2cc(O)cc(O)c12`, > 25 µM (inactive).
In the case of `COc1ccc(C(=O)N(C)c2cc(Cl)ccc2C(=O)O)cc1`, the IC50 is > 25 µM (inactive).
For the compound `COc1ccc(C(=O)Nc2cc(Cl)ccc2S(N)(=O)=O)cc1`, the IC50 was > 25 µM (inactive).
As to `O=C(Nc1ccccc1)n1sc2ccccc2c1=O`, the IC50 is 1.66 µM.
For the compound `O=c1c2cc(F)ccc2sn1-c1ccc(Cl)cc1`, the IC50 is > 25 µM (inactive).
Regarding `O=C(Nc1cc(Cl)ccc1C(=O)O)c1ccc(C2CC2)cc1`, the IC50 is > 25 µM (inactive).
`COc1ccc2c(c1)CN(c1cc(Cl)ccc1C(=O)O)C2=O`: the IC50 is > 25 µM (inactive).
Under `COc1ccccc1-n1sc2ccccc2c1=O` stands 6.29 µM; under `O=c1s[nH]c2ccccc12`, > 25 µM (inactive); under `CCc1ccc(C(=O)Nc2cc(Cl)ccc2C(=O)O)cc1`, > 25 µM (inactive).
As to `O=C(Nc1cc(Cl)ccc1C(=O)O)c1cocn1`, the IC50 is > 25 µM (inactive).
In the case of `O=C(Cn1sc2ccccc2c1=O)Nc1cccc(I)c1`, the IC50 is > 25 µM (inactive).
On to `COc1ccc(-c2cc3ccccc3[nH]2)cc1`, for which the IC50 is > 25 µM (inactive).
